Where “and” joins values, the source holds several entries; their conditions need not be identical. Equal values may be shown once.
Tests used:
Assay in all cases: Histone peptide microarray
Format in all cases: binding, human
[1] = test system: PHF2; details: PHF2, GST-tagged; arrays performed twice, n of 4
Summary of the method: (§1)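 GST-tagged PHD readers, 0.5 μM, probed on a microarray of 293 synthetic histone peptides carrying single or combinatorial PTMs (optimized Petell protocol). Signals are averaged over 4 replicates and expressed as relative binding.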

[2] = test system: ING3; details: ING3, GST-tagged; arrays performed twice, n of 4
Summary of the method: as §1

[3] = test system: CHD5 (PPCC); details: CHD5 (PPCC), GST-tagged; arrays performed twice, n of 4
Summary of the method: as §1

[4] = test system: AIRE (PP); details: AIRE (PP), GST-tagged; arrays performed twice, n of 4
Summary of the method: as §1

[5] = test system: MLL5; details: MLL5, GST-tagged; arrays performed twice, n of 4
Summary of the method: as §1

[6] = test system: ING5; details: ING5, GST-tagged; arrays performed twice, n of 4
Summary of the method: as §1

[7] = test system: RAG2; details: RAG2, GST-tagged; arrays performed twice, n of 4
Summary of the method: as §1

[8] = test system: CHD4 (PPCC); details: CHD4 (PPCC), GST-tagged; arrays performed twice, n of 4
Summary of the method: as §1

[9] = test system: KDM5B (3); details: KDM5B (3), GST-tagged; arrays performed twice, n of 4
Summary of the method: as §1

[10] = test system: PHF13; details: PHF13, GST-tagged; arrays performed twice, n of 4
Summary of the method: as §1

[11] = test system: PHF23; details: PHF23, GST-tagged; arrays performed twice, n of 4
Summary of the method: as §1

[12] = test system: KDM4C (TTP); details: KDM4C (TTP), GST-tagged; arrays performed twice, n of 4
Summary of the method: as §1

[13] = test system: PHRF1 (RP); details: PHRF1 (RP), GST-tagged; arrays performed twice, n of 4
Summary of the method: as §1

[14] = test system: PHF8; details: PHF8, GST-tagged; arrays performed twice, n of 4
Summary of the method: as §1

[15] = test system: DPF2 (PPC2W2); details: DPF2 (PPC2W2), GST-tagged; arrays performed twice, n of 4
Summary of the method: as §1

[16] = test system: TRIM66 (PB); details: TRIM66 (PB), GST-tagged; arrays performed twice, n of 4
Summary of the method: as §1

[17] = test system: KDM5A (1); details: KDM5A (1), GST-tagged; arrays performed twice, n of 4
Summary of the method: as §1

[18] = test system: TAF3; details: TAF3, GST-tagged; arrays performed twice, n of 4
Summary of the method: as §1

[19] = test system: KDM5B (1); details: KDM5B (1), GST-tagged; arrays performed twice, n of 4
Summary of the method: as §1

[20] = test system: CHD5 (PCC); details: CHD5 (PCC), GST-tagged; arrays performed twice, n of 4
Summary of the method: as §1

[21] = test system: PHF21A; details: PHF21A, GST-tagged; arrays performed twice, n of 4
Summary of the method: as §1

[22] = test system: BAZ2B; details: BAZ2B, GST-tagged; arrays performed twice, n of 4
Summary of the method: as §1

[23] = test system: ING2; details: ING2, GST-tagged; arrays performed twice, n of 4
Summary of the method: as §1

[24] = test system: ING4; details: ING4, GST-tagged; arrays performed twice, n of 4
Summary of the method: as §1

[25] = test system: KDM7A; details: KDM7A, GST-tagged; arrays performed twice, n of 4
Summary of the method: as §1

[26] = test system: SP140L; details: SP140L, GST-tagged; arrays performed twice, n of 4
Summary of the method: as §1

[27] = test system: BPTF (PB); details: BPTF (PB), GST-tagged; arrays performed twice, n of 4
Summary of the method: as §1

[28] = test system: DIDO1; details: DIDO1, GST-tagged; arrays performed twice, n of 4
Summary of the method: as §1

[29] = test system: KDM5A (3); details: KDM5A (3), GST-tagged; arrays performed twice, n of 4
Summary of the method: as §1

[30] = test system: ING1; details: ING1, GST-tagged; arrays performed twice, n of 4
Summary of the method: as §1

[31] = test system: MORC3 (CW); details: MORC3 (CW), GST-tagged; arrays performed twice, n of 4
Summary of the method: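 Purified PHD finger domains fused to GST are screened against 293 synthetic histone peptides bearing one or several post-translational modifications. The protein is used at 0.5 μM, and the signal from four replicate arrays is averaged, with standard deviation given.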

Substance	Array Heatmap value (peptide array binding signal) [1]	Array Heatmap value (peptide array binding signal) [2]	Array Heatmap value (peptide array binding signal) [3]	Array Heatmap value (peptide array binding signal) [4]	Array Heatmap value (peptide array binding signal) [5]	Array Heatmap value (peptide array binding signal) [6]	Array Heatmap value (peptide array binding signal) [7]	Array Heatmap value (peptide array binding signal) [8]	Array Heatmap value (peptide array binding signal) [9]	Array Heatmap value (peptide array binding signal) [10]	Array Heatmap value (peptide array binding signal) [11]	Array Heatmap value (peptide array binding signal) [12]	Array Heatmap value (peptide array binding signal) [13]	Array Heatmap value (peptide array binding signal) [14]	Array Heatmap value (peptide array binding signal) [15]	Array Heatmap value (peptide array binding signal) [16]	Array Heatmap value (peptide array binding signal) [17]	Array Heatmap value (peptide array binding signal) [18]	Array Heatmap value (peptide array binding signal) [19]	Array Heatmap value (peptide array binding signal) [20]	further results
H3K27acK36me1 (21-44): H3 21-44	0.6877	0.5657	0.6612	0.4899	0.6075	0.4437	0.2901	0.6736	0.4928	0.7148	0.594	0.5731	0.5526	0.4123	0.7332	0.6284	0.5728	0.3058	0.7243	0.8019	Array Heatmap value (peptide array binding signal) [21]: 0.5223; Array Heatmap value (peptide array binding signal) [22]: 0.5322; Array Heatmap value (peptide array binding signal) [23]: 0.6555; Array Heatmap value (peptide array binding signal) [24]: 0.5489; Array Heatmap value (peptide array binding signal) [25]: 0.3972; Array Heatmap value (peptide array binding signal) [26]: 0.402; Array Heatmap value (peptide array binding signal) [27]: 0.4151; Array Heatmap value (peptide array binding signal) [28]: 0.819; Array Heatmap value (peptide array binding signal) [29]: 0.5161; Array Heatmap value (peptide array binding signal) [30]: 0.6463; Array Heatmap value (peptide array binding signal) [31]: 0.41
H3K27acK36me2 (21-44): H3 21-44	0.5335 and 0.4712	0.4824 and 0.4746	0.5507 and 0.5149	0.4428 and 0.4192	0.5387 and 0.5129	0.3615 and 0.3253	0.238 and 0.2335	0.5418 and 0.5498	0.4476 and 0.4512	0.6217 and 0.5883	0.5178 and 0.5191	0.4885 and 0.4721	0.4704 and 0.4395	0.3474 and 0.3417	0.7163 and 0.602	0.5511 and 0.5888	0.4783 and 0.4109	0.2617 and 0.2453	0.6449 and 0.6364	0.7409 and 0.7549	Array Heatmap value (peptide array binding signal) [21]: 0.4478 and 0.464; Array Heatmap value (peptide array binding signal) [22]: 0.4609 and 0.4258; Array Heatmap value (peptide array binding signal) [23]: 0.6056 and 0.5874; Array Heatmap value (peptide array binding signal) [24]: 0.4678 and 0.4306; Array Heatmap value (peptide array binding signal) [25]: 0.3413 and 0.3447; Array Heatmap value (peptide array binding signal) [26]: 0.3702 and 0.357; Array Heatmap value (peptide array binding signal) [27]: 0.3426 and 0.3388; Array Heatmap value (peptide array binding signal) [28]: 0.6948 and 0.6464; Array Heatmap value (peptide array binding signal) [29]: 0.4461 and 0.4626; Array Heatmap value (peptide array binding signal) [30]: 0.5489 and 0.5171; Array Heatmap value (peptide array binding signal) [31]: 0.3508 and 0.3632
H3K36ac (21-44): H3 21-44	0.5459	0.4959	0.5645	0.4538	0.5602	0.3615	0.2439	0.5911	0.4828	0.6346	0.5388	0.4961	0.4519	0.3497	0.7036	0.6317	0.4894	0.2714	0.6899	0.8362	Array Heatmap value (peptide array binding signal) [21]: 0.4731; Array Heatmap value (peptide array binding signal) [22]: 0.4745; Array Heatmap value (peptide array binding signal) [23]: 0.6078; Array Heatmap value (peptide array binding signal) [24]: 0.4623; Array Heatmap value (peptide array binding signal) [25]: 0.3751; Array Heatmap value (peptide array binding signal) [26]: 0.3554; Array Heatmap value (peptide array binding signal) [27]: 0.3596; Array Heatmap value (peptide array binding signal) [28]: 0.7412; Array Heatmap value (peptide array binding signal) [29]: 0.4289; Array Heatmap value (peptide array binding signal) [30]: 0.5601; Array Heatmap value (peptide array binding signal) [31]: 0.3556
H3K36me1 (21-44): H3 21-44	0.4036	0.3958	0.4582	0.395	0.4918	0.2888	0.2054	0.5004	0.3806	0.5223	0.4625	0.4185	0.3839	0.3097	0.6617	0.5169	0.422	0.2241	0.6354	0.7445	Array Heatmap value (peptide array binding signal) [21]: 0.4184; Array Heatmap value (peptide array binding signal) [22]: 0.3935; Array Heatmap value (peptide array binding signal) [23]: 0.5895; Array Heatmap value (peptide array binding signal) [24]: 0.3966; Array Heatmap value (peptide array binding signal) [25]: 0.3181; Array Heatmap value (peptide array binding signal) [26]: 0.3238; Array Heatmap value (peptide array binding signal) [27]: 0.3001; Array Heatmap value (peptide array binding signal) [28]: 0.5926; Array Heatmap value (peptide array binding signal) [29]: 0.3829; Array Heatmap value (peptide array binding signal) [30]: 0.4725; Array Heatmap value (peptide array binding signal) [31]: 0.3108

— publication PMC6979384, “Characterization of the plant homeodomain (PHD) reader family for their histone tail interactions” (Epigenetics & Chromatin, 2020)
